Laboratory results published in patent US12185723B2, “Herbicidally active 3-phenylisoxazoline-5-carboxamides of s-containing cyclopentenylcarboxylic esters” (Bayer Aktiengesellschaft, priority 2019, dated 2025).

Legend:
Type in all cases: in vivo
[1] = tested on: Alopecurus myosuroides; assay: Post-emergence herbicidal action against ALOMY; conditions: 20 g a.i./ha, visual rating about 3 weeks after treatment
Description: (§1) Post-Emergence Herbicidal Action Against Harmful Plants and Crop Plant Compatibility Seeds of monocotyledonous and dicotyledonous weeds and crop plants are placed in sandy loam in plastic or wood-fibre pots, covered with soil and cultivated in a greenhouse under controlled growth conditions. 2 to 3 weeks after sowing, the test plants are treated at the one-leaf stage. The compounds of the invention, formulated in the form of wettable powders (WP) or as emulsion concentrates (EC), are then sprayed onto the green parts of the plants as aqueous suspension or emulsion with addition of 0.5% additive at a water application rate of 600 l/ha (converted). After the test plants have been kept in the greenhouse under optimum growth conditions for about 3 weeks, the activity of the preparations is rated visually in comparison to untreated controls. For example, 100% activity=the plants have died, 0% activity=like control plants. [table]

[2] = tested on: Avena fatua; assay: Post-emergence herbicidal action against AVEFA; conditions: 20 g a.i./ha, visual rating about 3 weeks after treatment
Description: as §1

[3] = tested on: DIGSA; assay: Post-emergence herbicidal action against DIGSA; conditions: 20 g a.i./ha, visual rating about 3 weeks after treatment
Description: as §1, with “plants.” for “plants. [table]”

[4] = tested on: Echinochloa crus-galli; assay: Post-emergence herbicidal action against ECHCG; conditions: 20 g a.i./ha, visual rating about 3 weeks after treatment
Description: as §1

[5] = tested on: Lolium rigidum; assay: Post-emergence herbicidal action against LOLRI; conditions: 20 g a.i./ha, visual rating about 3 weeks after treatment
Description: as §1

[6] = tested on: Setaria viridis; assay: Post-emergence herbicidal action against SETVI; conditions: 20 g a.i./ha, visual rating about 3 weeks after treatment
Description: as §1

[7] = tested on: Abutilon theophrasti; assay: Post-emergence herbicidal action against ABUTH; conditions: 20 g a.i./ha, visual rating about 3 weeks after treatment
Description: as §1

[8] = tested on: Amaranthus retroflexus; assay: Post-emergence herbicidal action against AMARE; conditions: 20 g a.i./ha
Description: as §1

[9] = tested on: Matricaria inodora; assay: Post-emergence herbicidal action against MATIN; conditions: 20 g a.i./ha
Description: as §1

[10] = tested on: Pharbitis purpurea; assay: Post-emergence herbicidal action against PHBPU; conditions: 20 g a.i./ha
Description: as §1

[11] = tested on: Polygonum convolvulus; assay: Post-emergence herbicidal action against POLCO; conditions: 20 g a.i./ha
Description: as §1

[12] = tested on: Veronica persica; assay: Post-emergence herbicidal action against VERPE; conditions: 20 g a.i./ha
Description: as §1

SMILES: C=CCSCCOC(=O)C1C=CC(NC(=O)C2(C)CC(c3cc(F)cc(F)c3)=NO2)C1 (stereo not drawn) [Example I-11]
- Herbicidal action against [%] ALOMY [1]: 100%
- Herbicidal action against [%] AVEFA [2]: 90%
- Herbicidal action against [%] DIGSA [3]: 90%
- Herbicidal action against [%] ECHCG [4]: 90%
- Herbicidal action against [%] LOLRI [5]: 100%
- Herbicidal action against [%] SETVI [6]: 90%
- Herbicidal action against [%] ABUTH [7]: 90%
- Herbicidal action against [%] AMARE [8]: 90%
- Herbicidal action against [%] MATIN [9]: 80%
- Herbicidal action against [%] PHBPU [10]: 80%
- Herbicidal action against [%] POLCO [11]: 90%
- Herbicidal action against [%] VERPE [12]: 90%

SMILES: COC1(C(=O)NC2C=CC(C(=O)OCCSC)C2)CC(c2cc(F)cc(F)c2)=NO1 (stereo not drawn) [Example I-20]
- Herbicidal action against [%] ALOMY [1]: 90%
- Herbicidal action against [%] AVEFA [2]: 90%
- Herbicidal action against [%] DIGSA [3]: 80%
- Herbicidal action against [%] ECHCG [4]: 90%
- Herbicidal action against [%] LOLRI [5]: 90%
- Herbicidal action against [%] SETVI [6]: 80%
- Herbicidal action against [%] ABUTH [7]: 80%
- Herbicidal action against [%] AMARE [8]: 80%
- Herbicidal action against [%] MATIN [9]: 80%
- Herbicidal action against [%] PHBPU [10]: 80%
- Herbicidal action against [%] VERPE [12]: 80%

SMILES: COC1(C(=O)NC2C=CC(C(=O)OCCSC(=O)N(C)C)C2)CC(c2cc(F)cc(F)c2)=NO1 (stereo not drawn) [Example I-24]
- Herbicidal action against [%] ALOMY [1]: 80%
- Herbicidal action against [%] AVEFA [2]: 90%
- Herbicidal action against [%] DIGSA [3]: 80%
- Herbicidal action against [%] ECHCG [4]: 90%
- Herbicidal action against [%] LOLRI [5]: 90%
- Herbicidal action against [%] SETVI [6]: 90%
- Herbicidal action against [%] ABUTH [7]: 80%
- Herbicidal action against [%] AMARE [8]: 90%
- Herbicidal action against [%] MATIN [9]: 80%
- Herbicidal action against [%] PHBPU [10]: 80%
- Herbicidal action against [%] POLCO [11]: 80%
- Herbicidal action against [%] VERPE [12]: 100%

SMILES: CC1(C(=O)NC2C=CC(C(=O)OCCSCc3ccccc3)C2)CC(c2cc(F)cc(F)c2)=NO1 (stereo not drawn) [Example I-07]
- Herbicidal action against [%] ALOMY [1]: 90%
- Herbicidal action against [%] AVEFA [2]: 90%
- Herbicidal action against [%] DIGSA [3]: 90%
- Herbicidal action against [%] ECHCG [4]: 90%
- Herbicidal action against [%] LOLRI [5]: 90%
- Herbicidal action against [%] SETVI [6]: 90%
- Herbicidal action against [%] ABUTH [7]: 80%
- Herbicidal action against [%] AMARE [8]: 90%
- Herbicidal action against [%] MATIN [9]: 80%
- Herbicidal action against [%] PHBPU [10]: 80%
- Herbicidal action against [%] POLCO [11]: 90%
- Herbicidal action against [%] VERPE [12]: 90%

SMILES: CC(C)SCCOC(=O)C1C=CC(NC(=O)C2(C)CC(c3cc(F)cc(F)c3)=NO2)C1 (stereo not drawn) [Example I-10]
- Herbicidal action against [%] ALOMY [1]: 100%
- Herbicidal action against [%] AVEFA [2]: 90%
- Herbicidal action against [%] DIGSA [3]: 90%
- Herbicidal action against [%] ECHCG [4]: 90%
- Herbicidal action against [%] LOLRI [5]: 100%
- Herbicidal action against [%] SETVI [6]: 90%
- Herbicidal action against [%] ABUTH [7]: 90%
- Herbicidal action against [%] AMARE [8]: 90%
- Herbicidal action against [%] MATIN [9]: 80%
- Herbicidal action against [%] PHBPU [10]: 80%
- Herbicidal action against [%] POLCO [11]: 90%
- Herbicidal action against [%] VERPE [12]: 90%

SMILES: C=CC1(C(=O)NC2C=CC(C(=O)OCCSC)C2)CC(c2cc(Cl)cc(Cl)c2)=NO1 (stereo not drawn) [Example I-55]
- Herbicidal action against [%] ALOMY [1]: 100%
- Herbicidal action against [%] AVEFA [2]: 80%
- Herbicidal action against [%] DIGSA [3]: 80%
- Herbicidal action against [%] SETVI [6]: 90%
- Herbicidal action against [%] ABUTH [7]: 80%
- Herbicidal action against [%] AMARE [8]: 90%
- Herbicidal action against [%] MATIN [9]: 80%
- Herbicidal action against [%] PHBPU [10]: 80%
- Herbicidal action against [%] POLCO [11]: 80%
- Herbicidal action against [%] VERPE [12]: 90%

SMILES: CC1(C(=O)NC2C=CC(C(=O)OCCSC(F)(F)F)C2)CC(c2cc(F)cc(F)c2)=NO1 (stereo not drawn) [Example I-13]
- Herbicidal action against [%] ALOMY [1]: 90%
- Herbicidal action against [%] AVEFA [2]: 90%
- Herbicidal action against [%] DIGSA [3]: 80%
- Herbicidal action against [%] LOLRI [5]: 80%
- Herbicidal action against [%] SETVI [6]: 80%
- Herbicidal action against [%] ABUTH [7]: 80%
- Herbicidal action against [%] MATIN [9]: 80%
- Herbicidal action against [%] VERPE [12]: 80%

SMILES: COC1(C(=O)NC2C=CC(C(=O)OCCSC(=O)C(C)C)C2)CC(c2cc(F)cc(F)c2)=NO1 (stereo not drawn) [Example I-23]
- Herbicidal action against [%] ALOMY [1]: 90%
- Herbicidal action against [%] AVEFA [2]: 90%
- Herbicidal action against [%] DIGSA [3]: 90%
- Herbicidal action against [%] ECHCG [4]: 90%
- Herbicidal action against [%] LOLRI [5]: 90%
- Herbicidal action against [%] SETVI [6]: 80%
- Herbicidal action against [%] ABUTH [7]: 80%
- Herbicidal action against [%] AMARE [8]: 80%
- Herbicidal action against [%] MATIN [9]: 80%
- Herbicidal action against [%] PHBPU [10]: 80%
- Herbicidal action against [%] POLCO [11]: 80%
- Herbicidal action against [%] VERPE [12]: 90%

SMILES: CSCCOC(=O)C1C=CC(NC(=O)C2(CF)CC(c3cc(F)cc(C#N)c3)=NO2)C1 (stereo not drawn) [Example I-65]
- Herbicidal action against [%] ALOMY [1]: 90%
- Herbicidal action against [%] AVEFA [2]: 80%
- Herbicidal action against [%] ECHCG [4]: 80%
- Herbicidal action against [%] LOLRI [5]: 80%
- Herbicidal action against [%] ABUTH [7]: 80%
- Herbicidal action against [%] AMARE [8]: 80%
- Herbicidal action against [%] MATIN [9]: 80%
- Herbicidal action against [%] POLCO [11]: 90%
- Herbicidal action against [%] VERPE [12]: 80%

SMILES: CC1(C(=O)NC2C=CC(C(=O)OCCSc3ccccc3)C2)CC(c2cc(F)cc(F)c2)=NO1 (stereo not drawn) [Example I-16]
- Herbicidal action against [%] ALOMY [1]: 90%
- Herbicidal action against [%] AVEFA [2]: 90%
- Herbicidal action against [%] DIGSA [3]: 80%
- Herbicidal action against [%] ECHCG [4]: 80%
- Herbicidal action against [%] SETVI [6]: 80%
- Herbicidal action against [%] ABUTH [7]: 80%
- Herbicidal action against [%] MATIN [9]: 80%
- Herbicidal action against [%] PHBPU [10]: 80%
- Herbicidal action against [%] POLCO [11]: 80%
- Herbicidal action against [%] VERPE [12]: 80%
